Where two headings read alike, the source gives them in different places.
Assays:
[1] = pH 0.4
[2] = Evaluation of heat of reaction of aqueous amine solutions (C-80 reaction calorimeter, FIG. 9C); format: physicochemical; conditions: 30° C., per 1 mole of reacted CO2 at reacted amount 0.10 mol CO2/mol N
Experimental: * Evaluation of Heat of Reaction Heat of reaction was measured using the apparatus shown in FIG. 9C with the Model C-80 Reaction calorimeter (Setaram Inc.) 936. A gas circulation normal pressure type cell (stainless steel 31/1415) was used for the cell, and the gas inlet port and outlet port were connected as shown in FIG. 9C. 4 g aliquots of each aqueous amine compound solution were placed in the cell after adjusting to the same concentrations as those used in the aforementioned evaluation of reactivity ([…] in the case of monoamine compounds and […] in the case of diamine compounds) and the cell was then placed in the C-80 Reaction calorimeter. The cell temperature was adjusted to 30° C. and allowed to stabilize. 50 mL of carbon dioxide were injected into a gas syringe 930 from carbon dioxide supplied from a carbon dioxide cylinder 929 by closing a valve 932 followed by opening the valve 932. The reacted amount was then measured based on the change in internal pressure measured with a pressure gauge 933 while measuring the amount of heat generated with the C-80 Reaction calorimeter. The amount of heat generated and reacted amount were calculated in advance using a calibration curve of heat of compression and internal pressure determined in the absence of a sample.
(§1) Table 7 indicates a comparison of performance when used as an amine compound for a carbon dioxide absorber. Those parameters evaluated as indicators of performance consisted of absorbed amount at 30° C., absorbed amount at 90° C. and heat of reaction. Furthermore, the difference between the absorbed amount at 30° C. and the absorbed amount at 90° C. was taken to represent carbon dioxide desorption performance. Values for heat of reaction are shown in Table 7 after converting to heat of reaction (kJ/mol) per 1 mole of reacted carbon dioxide using a calibration curve obtained when the reacted amount of the amino groups of each amine compound and carbon dioxide reached 0.10 mol CO2/mol N.

[3] = format: physicochemical
Description: Thus, Compound A is extremely useful since it is able to reduce volatilization loss when contacting a gas. In addition, the weak basicity per amino group is attributable to the diamine structure. […]. Thus, Compound A is extremely useful since it allows a wide range of materials to be selected for use in the reactor.

[4] = Evaluation of reactivity of aqueous amine solutions with carbon dioxide; format: physicochemical; conditions: for Absorbed amount at 30° C. (moles CO2/moles N) / Absorbed amount at 90° C. (moles CO2/moles N): aqueous amine 1.81 mol/L (monoamine) or 0.91 mol/L (diamine), CO2 300 mL/min 15 minutes; for CO2 desorption performance (moles CO2/moles N): difference between absorbed amount at 30° C. and at 90° C.
Experimental: Amine compounds were mixed with water to prepare aqueous amine solutions. At this time, the concentration of monoamine compounds having one amino group was adjusted to 1.81 mol/L, while the concentration of diamine compounds having two amino groups was adjusted to 0.91 mol/L. Carbon dioxide gas was blown into 25 mL aliquots of each aqueous amine solution for 15 minutes at 300 mL/min to allow the amine compound to react with the carbon dioxide. The reactions were carried out at temperatures of 30° C. and 90° C., and the reacted amount was calculated from element ratios of C and N before and after the reaction as measured with the Model TOC-VCP and Model TNM-1 Total Organic Carbon Analyzers (Shimadzu Corp.).
The absorbed amounts are represented by the number of moles of carbon dioxide reacting with respect to 1 mole of amino group, or in other words, moles CO2/moles N.
as §1

[5] = physchem; conditions: aqueous solution
[6] = pKb of amine compounds / pKa of weakly acidic compounds calculated from pH of aqueous solution; conditions: amine compound, aqueous solution at 30° C., calculated from pH of 0.4 M aqueous solution

| Heat of reaction [2] | Absorbed amount at 30° C. (moles CO2/moles N) [4] | Absorbed amount at 90° C. (moles CO2/moles N) [4] | CO2 desorption performance (moles CO2/moles N) [4] | pKb [6] | Compound | also measured |
| --- | --- | --- | --- | --- | --- | --- |
| – | – | – | – | 4.1 | CC(C)NCCO [IPAE, 2-isopropylaminoethanol] | – |
| 21.6 kcal/mol | 0.614 moles CO2/moles N | 0.400 moles CO2/moles N | 0.214 moles CO2/moles N | – | NCCO [MEA, Monoethanolamine] | pKb [1]: 4.7 |
| – | – | – | – | 4.8 | C1CNCCN1 [Pz, piperazine] | – |

The remaining lines, values behind:

| Compound | Heat of reaction [2] | Absorbed amount at 30° C. (moles CO2/moles N) [4] | Absorbed amount at 90° C. (moles CO2/moles N) [4] | CO2 desorption performance (moles CO2/moles N) [4] | pKb [6] | also measured |
| --- | --- | --- | --- | --- | --- | --- |
| OCCNCC(O)CNCCO [BHEP, 1,3-bis(2-hydroxyethylamino)propan-2-ol] | 16.1 kcal/mol | 0.516 moles CO2/moles N | 0.214 moles CO2/moles N | 0.302 moles CO2/moles N | – | pKb [1]: 6.3; vapor pressure [3]: 0.04 mPa |
| CC(O)CNCC(O)CNCC(C)O (centres unmarked) [BHPP, 1,3-bis(2-hydroxypropylamino)propan-2-ol] | 16.3 kcal/mol | 0.498 moles CO2/moles N | 0.213 moles CO2/moles N | 0.285 moles CO2/moles N | – | – |
| OB(O)O [Boric acid] | – | – | – | – | – | pKa [5]: 9.2 |
| NCC(O)CN [DAP, 1,3-diaminopropan-2-ol] | 20.9 kcal/mol | 0.601 moles CO2/moles N | 0.409 moles CO2/moles N | 0.192 moles CO2/moles N | – | – |
| OCCNCCO [DEA, Diethanolamine] | – | – | – | – | – | pKb [1]: 5.4 |
| CCNCCO [EAE, 2-ethylaminoethanol] | 20.8 kcal/mol | 0.631 moles CO2/moles N | 0.279 moles CO2/moles N | 0.352 moles CO2/moles N | 4.4 | – |
| NC(CO)CO [Example 2A13PD, 2-amino-1,3-propanediol] | – | – | – | – | 5.6 | – |
| CC(O)CNCC(O)CNCCO (centres unmarked) [HEHPP, 1-(2-hydroxyethylamino)-3-(2-hydroxypropylamino)propan-2-ol] | 16.1 kcal/mol | 0.506 moles CO2/moles N | 0.213 moles CO2/moles N | 0.293 moles CO2/moles N | – | – |
| CCOB(OCC)OCC [TEB, Triethylborate] | – | – | – | – | – | pKa [5]: 8.1 |
| COB(OC)OC [TMB, Trimethylborate] | – | – | – | – | – | pKa [5]: 8.7 |
